Test results: patent US20100323989A1, “PHARMACEUTICAL COMBINATIONS USEFUL FOR TREATING HCV” (Gilead Sciences, Inc., priority 2009, published 2010)
Values joined by “and” are separate entries in the source; they are usually repeats but may differ in a detail not shown here. Identical values can stand only once.

Experiments:
[1] = test system: 1b Con-1 PI-Luc replicon with NS5B polymerase mutation M414T; type: cell-based, HCV genotype 1b; settings: ratio of mutant EC50 to wild type EC50, NS5B M414T
[2] = test system: 1b PI-luc replicon with NS3 protease mutation D168E; type: cell-based, HCV genotype 1b; settings: ratio of mutant EC50 to wild type EC50, NS3 D168E
[3] = test system: wild-type 1b Con-1 PI-Luc replicon; assay: Transient transfection replicon assay, wild type; type: cell-based, HCV genotype 1b; settings: Hepatitis C virus
[4] = test system: 1b PI-luc replicon with NS3 protease mutation V36M; type: cell-based, HCV genotype 1b; settings: ratio of mutant EC50 to wild type EC50, NS3 V36M
[5] = test system: 1b Con-1 PI-Luc replicon with NS5B polymerase mutations C316Y/C445F/Y452H; type: cell-based, HCV genotype 1b; settings: ratio of mutant EC50 to wild type EC50, NS5B C316Y/C445F/Y452H
[6] = test system: HCV genotype 1b replicon cells (Huh-luc); assay: EC50 determination in HCV genotype 1b Huh-luc replicon cells (luciferase); type: cell-based; settings: Hepatitis C virus, 72 h, 3 days, average ± standard deviation
Description: (§1) HCV genotype 1b replicon cells (Huh-luc) were obtained from Reblikon (Mainz, Germany). The replicon in these cells is designated I389luc-ubi-neo/NS3-3′/ET and encodes a selectable resistance marker (neomycin phosphotransferase) as well as the firefly luciferase reporter gene. Huh-luc cells were maintained in Dulbecco's Modified Eagle's Medium (DMEM; GIBCO, Carlsbad, Calif.) supplemented with 10% fetal bovine serum (FBS; Hyclone, Logan, Utah) and 0.5 mg/mL of G-418 (GIBCO). Cells were passaged twice a week and maintained at subconfluent levels.
Replicon cells were seeded in 96-well plates at a density of 5×10^3 cells per well in 100 μL of DMEM culture medium, excluding G-418. Compounds 1 and 2 were serially diluted 1:3 in 100% DMSO (Sigma). These serial dilutions were added to the cells at a 1:200 dilution to achieve a final concentration of 0.5% DMSO in a total volume of 200 μL. […] HCV replication levels in drug-treated samples were expressed as a percentage of those in untreated controls (defined as 100%), and data were fit to the logistic dose response equation y=a/(1+(x/b)c) using XLFit4 software (IDBS, Emeryville, Calif.). EC50 values were calculated from the resulting equations as described previously (Delaney, W. E., et al., Antimicrobial Agents Chemotherapy, 45(6):1705-1713 (2001)).

[7] = test system: 1b PI-luc replicon with NS3 protease mutation A156T; type: cell-based, HCV genotype 1b; settings: ratio of mutant EC50 to wild type EC50, NS3 A156T
[8] = test system: HCV genotype 1b replicon cells (Huh-luc); assay: Combination study in Huh-luc replicon cells analysed with MacSynergy II; type: cell-based; settings: Compound 1 in combination with Compound 2, MacSynergy II
Description: as §1
For each individual drug, the EC50 value was selected as the midpoint for the concentration range tested. Cells were incubated for three days and analyzed for luciferase expression as indicated above. For the combination study, two independent experiments were performed in triplicate.
The calculated volumes of surface deviations are expressed in nM2%. Per Prichard and Shipman, combination effects are defined as:
Highly synergistic if volumes >100 nM^2.
Slightly synergistic if volumes are >50 and ≦100 nM^2.
Additive if volumes are >−50 nM^2 and ≦50 nM^2.
Slightly antagonistic if volumes are >−100 nM^2 and ≦−50 nM^2.
Antagonistic if volumes are ≦−100 nM^2.

[9] = test system: 1b Con-1 PI-Luc replicon with NS5B polymerase mutation M423T; type: cell-based, HCV genotype 1b; settings: ratio of mutant EC50 to wild type EC50, NS5B M423T
[10] = test system: 1b PI-luc replicon with NS3 protease mutation R155K; type: cell-based, HCV genotype 1b; settings: ratio of mutant EC50 to wild type EC50, NS3 R155K
[11] = test system: 1b PI-luc replicon with NS3 protease mutation T54A; type: cell-based, HCV genotype 1b; settings: ratio of mutant EC50 to wild type EC50, NS3 T54A
[12] = test system: 1b Con-1 PI-Luc replicon with NS5B polymerase mutation Y448H; type: cell-based, HCV genotype 1b; settings: ratio of mutant EC50 to wild type EC50, NS5B Y448H
[13] = test system: 1b PI-luc replicon with NS3 protease mutation D168V; type: cell-based, HCV genotype 1b; settings: ratio of mutant EC50 to wild type EC50, NS3 D168V
[14] = test system: HCV 1b-con replicon cells; assay: Long-term (20 days, 6 passages) treatment of HCV replicon cells, HCV RNA by Real-Time RT PCR; type: cell-based, HCV genotype 1b; settings: from baseline, compounds at 10 times their EC50, mean ± SD
Description: as §1
Both compounds were used at concentrations 10 times over their respective EC50 values. In brief, replicon cells (10^6 cells) were plated in a T75 flask in 15 mL of supplemented DMEM without G418. […] At each passage, cells were trypsinized, 10^6 cells were frozen in […] of RLT RNA lysis buffer (QIAGEN), and an additional 10^6 cells were seeded into another T75 flask with fresh medium and inhibitors. At the end of the assay, RNA was extracted from frozen replicon cells saved at the time of passage using QIAGEN RNeasy spin kit and was analyzed in a Real-Time RT PCR assay (Applied Biosystems).

[15] = Table 4 (NS3 protease mutation study)

SMILES	Fold Resistance M414T [1] [fold]	Fold Resistance D168E [2] [fold]	EC50 ([3]; Table 3 (NS5B mutation study)) [nM]	EC50 [3, 15] [nM]	Fold Resistance V36M [4] [fold]	Fold Resistance C316Y/C445F/Y452H [5] [fold]	EC50 [6] [nM]	Fold Resistance A156T [7] [fold]	Interaction [8]	Antagonism Volume ([8]; mean ± SD) [nM^2]	Synergy Volume ([8]; mean ± SD) [nM^2]	Fold Resistance M423T [9] [fold]	Fold Resistance R155K [10] [fold]	Fold Resistance T54A [11] [fold]	Fold Resistance Y448H [12] [fold]	Fold Resistance D168V [13] [fold]	HCV RNA Change in Log10, Passage 5 [14] [Log10]	HCV RNA Change in Log10, Passage 6 [14]
Fc1ccccc1-c1nc2ccn(Cc3ccc(-c4ccc(C(F)(F)F)cc4C(F)(F)F)nn3)cc-2n1 [Compound 1, 5-({6-[2,4-bis(trifluoromethyl)phenyl]pyridazin-3-yl}methyl)-2-(2-fluorophenyl)-5H-imidazo[4,5-c]pyridine]	0.7	1.0	1.5	0.79	1.1	>343	3 ± 2	0.6	Additive (Additive if volumes are >−50 nM^2 and ≦50 nM^2.)	0.07 ± 0.07	13.5 ± 10.5	0.8	0.9	1.0	38.0	1.2	−2.1 ± 0.5	−2.3 Log10 and −2.4 ± 0.2 Log10
COc1ccc2c(O[C@@H]3C[C@H]4C(=O)N[C@]5(P(=O)(O)Cc6c(F)cccc6F)C[C@H]5CCCCCCC[C@H](NC(=O)OC5CCCC5)C(=O)N4C3)cc(-c3csc(NC(C)C)n3)nc2c1Cl [Compound 2]	2.0	120.0	50.7	21.4	3.0	2.1	11 ± 3	1882.4	additive			1.1	566.3	0.6	1.0	1832.3	−2.9 ± 0.2	−3.1 Log10 and −3.1 ± 0.4 Log10
